Experimental data as given in US8106039B2, “Metal complex phosphatidyl-inositol-3-kinase inhibitors” (The Trustees Of The University Of Pennsylvania, priority 2008, dated 2012).

Assays:
[1] = target: T1, human PI3Kγ catalytic domain (Homo sapiens, UniProt P48736); assay: PI3K Kinase-Glo assay; format: biochemical; conditions: for IC50: 1.4 pmoles PI3K, FIG. 3A, read-out: IC50 PI3Kγ inhibition
T1 construct: made in house; host or cells: baculovirus expression (virus obtained from the MRC, United Kingdom)
T1 sequence (P48736 144-1102 limits assumed): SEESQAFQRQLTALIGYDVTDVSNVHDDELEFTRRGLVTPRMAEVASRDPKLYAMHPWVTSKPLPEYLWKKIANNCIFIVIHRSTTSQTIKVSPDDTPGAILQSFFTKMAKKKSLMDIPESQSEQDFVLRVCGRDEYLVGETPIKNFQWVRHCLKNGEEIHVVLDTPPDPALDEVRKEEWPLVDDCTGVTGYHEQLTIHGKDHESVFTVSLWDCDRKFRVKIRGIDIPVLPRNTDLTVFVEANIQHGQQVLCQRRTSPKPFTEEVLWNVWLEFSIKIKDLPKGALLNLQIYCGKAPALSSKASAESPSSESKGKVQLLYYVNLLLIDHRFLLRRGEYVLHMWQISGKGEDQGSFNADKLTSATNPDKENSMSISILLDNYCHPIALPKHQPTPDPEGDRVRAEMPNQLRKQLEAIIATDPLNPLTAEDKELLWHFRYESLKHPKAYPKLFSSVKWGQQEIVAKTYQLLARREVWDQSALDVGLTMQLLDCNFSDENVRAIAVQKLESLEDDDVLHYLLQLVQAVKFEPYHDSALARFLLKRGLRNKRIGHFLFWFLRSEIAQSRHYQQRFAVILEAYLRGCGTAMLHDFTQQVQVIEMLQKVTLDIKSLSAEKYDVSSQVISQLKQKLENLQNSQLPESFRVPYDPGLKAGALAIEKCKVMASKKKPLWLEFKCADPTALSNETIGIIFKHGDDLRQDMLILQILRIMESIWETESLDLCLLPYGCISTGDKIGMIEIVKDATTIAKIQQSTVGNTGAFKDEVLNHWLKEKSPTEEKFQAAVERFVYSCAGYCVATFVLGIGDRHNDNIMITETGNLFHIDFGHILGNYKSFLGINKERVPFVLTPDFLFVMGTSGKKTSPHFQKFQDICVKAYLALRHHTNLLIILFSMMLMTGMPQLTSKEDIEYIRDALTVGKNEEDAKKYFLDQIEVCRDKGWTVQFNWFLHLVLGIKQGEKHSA
Method: PI3K Kinase-Glo Assay. Recombinantly expressed human PI3Kγ catalytic domain was preincubated with various concentration of inhibitors with a final DMSO concentration of 2% in reaction buffer (20 mM Tris pH 7.5, 100 mM NaCl, 10 mM MgCl2) for 1 hour at room temperature before this mixture was added to a solution of 0.1 mg/mL D-myo-Phosphatidylinositol 4,5-biphosphate (PtdIns (4,5)P2, Echelon Biosciences) and 10 μM ATP. 14 pmoles PI3K was used in compounds DW12, DW12Me, EAd125 comparison and 1.4 pmoles PI3K was used for compounds E5, E5E2, E5E1 measurements. The kinase reaction was carried out in a 50 μL final volume in a 96-well microtiter plate at 37° C. for 3 hours before 50 μL Kinase-Glo® (Promega) developing solution was added into the mixture to generate a luminescence signal. The signal was recorded using the PerkinElmer Wallac 1420 luminometer using a luminescence filter. Data were processed and IC50 values were derived from using 2% DMSO and with no kinase as controls and a sigmoidal dose response curve fitting by GraphPad Prism.

[2] = system: phospho-AKT in a melanoma cell line; assay: Western blot analysis of phospho-AKT in melanoma cells; format: cell-based, human; conditions: FIG. 4A
From the text: Western Blot Analysis. Proteins were extracted and blotted for as described in (41). […] Antibodies to phospho-AKT and total AKT were from Cell Signaling Technology, (Beverly, Mass.). The monoclonal antibody to β-actin was from Sigma.

[3] = system: 1205Lu melanoma cell line; assay: Cell proliferation (MTT) assay; format: cell-based, human; conditions: increasing concentrations, 72 hours, FIG. 4B
Method: Cell Proliferation (MTT) Assay. Cells were plated into a 96-well plate at a density of 2.5×10^4 cells per ml and left to grow overnight. Cells were treated with increasing concentrations of E5E1 (0.03-30 μM), […] or LY 294002 (Calbiochem, San Diego, Calif.) (0.01-30 μM) in triplicate. In each instance cells were grown for 72 hours before being treated with 20 μl of MTT for 3 hours (Sigma). After this time, the media was rapidly removed and the MTT crystals were solubilized using DMSO. The resulting absorbance was read in a plate reader at 560 nm. Absorbance readings were subtracted from the value of blank wells, the reduction in cell growth was calculated as a percentage of control absorbance in the absence of any drug.

[4] = system: melanoma cells grown as 3D collagen-implanted spheroids; assay: 3D spheroid growth / invasion; format: cell-based, human; conditions: 30 μM; 72 hours; FIG. 4C
Method: 3D Spheroid Growth. Melanoma spheroids were prepared using the liquid overlay method. Briefly, […] of melanoma cells (25,000 cells per ml) were added to a 96-well plate coated with 1.5% agar (Difco, Sparks MD). Plates were left to incubate for 72 hours, by which time cells had organized into 3D spheroids. Spheroids were then harvested using a P1000 pipette. The media was removed and the spheroids were implanted into a gel of bovine collagen I containing EMEM, L-glutamine and 2% FBS. Normal 2% melanoma media was overlaid on top of the solidified collagen. Spheroids were treated with either E5E1 (10-30 μM), or E5E2 (10-30 μM), before being left to grow for 72 hours. Spheroids were then washed twice in PBS before being treated with calcein-AM, ethidium bromide (Molecular Probes, Eugene, Oreg.) for 1 hour at 37° C., according to the manufacturer's instruction. After this time, pictures of the invading spheroids were taken using a Nikon-300 inverted fluorescence microscope.

BRAF^WT = BRAF^WT (Homo sapiens, UniProt P15056); assay: BRAF kinase assay (wild type); format: biochemical
Chain of BRAF^WT (P15056 whole entry): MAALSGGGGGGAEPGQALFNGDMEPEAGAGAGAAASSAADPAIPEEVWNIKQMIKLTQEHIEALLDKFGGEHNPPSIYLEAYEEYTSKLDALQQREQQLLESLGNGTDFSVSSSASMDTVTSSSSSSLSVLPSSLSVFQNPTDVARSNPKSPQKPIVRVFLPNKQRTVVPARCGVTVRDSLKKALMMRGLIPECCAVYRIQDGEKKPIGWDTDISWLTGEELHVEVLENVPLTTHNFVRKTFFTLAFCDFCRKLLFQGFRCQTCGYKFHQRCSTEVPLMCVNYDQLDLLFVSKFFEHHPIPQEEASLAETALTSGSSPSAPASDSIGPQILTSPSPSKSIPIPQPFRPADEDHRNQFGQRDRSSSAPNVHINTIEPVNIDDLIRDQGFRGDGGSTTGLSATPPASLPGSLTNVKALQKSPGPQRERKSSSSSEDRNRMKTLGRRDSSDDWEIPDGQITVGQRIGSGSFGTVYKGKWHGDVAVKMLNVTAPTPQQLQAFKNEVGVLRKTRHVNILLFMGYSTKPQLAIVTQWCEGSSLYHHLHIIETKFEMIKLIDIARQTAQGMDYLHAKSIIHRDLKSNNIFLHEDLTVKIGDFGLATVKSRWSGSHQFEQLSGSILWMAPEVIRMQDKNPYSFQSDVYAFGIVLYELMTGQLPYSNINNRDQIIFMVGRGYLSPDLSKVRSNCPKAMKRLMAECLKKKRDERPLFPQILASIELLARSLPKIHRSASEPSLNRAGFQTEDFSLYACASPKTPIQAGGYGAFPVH
Method: (§1) BRAF kinase assay—Recombinantly expressed GST-MEK diluted in TTBS buffer (20 mM Tris pH 7.5, 150 mM NaCl, 0.05% TWEEN-20) to 50 μg/mL in a volume of 100 μL was bound to the wells of a 96-well glutathione coated plate (Pierce Biotechnology). 1 μL of compound with 2× serial dilutions in a 100% DMSO stock solution were added to a mixture of 50 μL of a buffer containing 50 mM HEPES pH 7.0 with 0.7 pmoles of BRAF kinase. This mixture was incubated at room temperature for 1 hour before it was added into the GST-MEK bound wells of the 96-well plate. An additional 50 μL of phosphorylation buffer (50 mM HEPES pH 7.0, 200 mM NaCl, 10 mM MgCl2, 200 μM ATP) was added into the well mixture to start the kinase reaction at 37° C. for 30 min with intermittent shaking. The kinase reaction was stopped by extensive washing with TTBS buffer and a 1:5000 dilution of Anti-phospho-MEK1 (Ser218/222)/MEK2 (Ser222/226) monoclonal antibody (Millipore) in TTBS was subsequently added into the wells and incubated for 1 hour with shaking. Goat Anti-Rabbit IgG (H+L)-HRP Conjugate (BioRad Laboratories) in a 1:5000 dilution was added into the wells to incubate at room temperature with shaking. Finally, the SuperSignal ELISA Pico chemiluminescent substrate (Pierce Biotechnology) was added into the wells. The luminescence signal was recorded with a luminescence filter using a Wallac 1420 luminometer (PerkinElmer).

BRAF^V600E = BRAF^V600E (Homo sapiens, UniProt P15056, V600E); assay: BRAF kinase assay (V600E); format: biochemical; conditions: inhibitor concentration of 4 μM; FIG. 3B
Chain of BRAF^V600E (P15056 whole entry V600E): as the sequence (P15056 whole entry) above, with V600E counted along it
Method: as §1

PAK1 = PAK1 (Homo sapiens, UniProt Q13153); assay: PAK1 kinase assay; format: biochemical; conditions: inhibitor concentration of 4 μM; FIG. 3B
Chain of PAK1 (Q13153 whole entry): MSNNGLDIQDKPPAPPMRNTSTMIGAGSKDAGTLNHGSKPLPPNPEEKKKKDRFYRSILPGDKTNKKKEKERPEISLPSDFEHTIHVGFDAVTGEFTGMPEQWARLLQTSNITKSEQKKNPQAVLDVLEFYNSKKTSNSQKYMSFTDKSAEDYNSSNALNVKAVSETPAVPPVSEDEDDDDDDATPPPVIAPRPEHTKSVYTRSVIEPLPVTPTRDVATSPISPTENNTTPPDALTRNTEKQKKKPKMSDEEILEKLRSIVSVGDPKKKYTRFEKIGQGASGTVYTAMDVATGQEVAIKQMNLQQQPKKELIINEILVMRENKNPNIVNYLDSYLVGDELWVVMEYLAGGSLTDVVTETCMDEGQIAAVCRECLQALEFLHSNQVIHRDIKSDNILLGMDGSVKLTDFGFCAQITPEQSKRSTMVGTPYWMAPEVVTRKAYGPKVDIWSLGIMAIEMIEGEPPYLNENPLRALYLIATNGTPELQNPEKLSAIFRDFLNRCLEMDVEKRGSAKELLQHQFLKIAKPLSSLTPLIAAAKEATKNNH
Method: PAK1 kinase assay—Kinase assays were performed using labeled γ-P^32 ATP and the incorporation of labeled phosphate onto the myelin basic protein (MBP) substrate was monitored. Different concentrations of compound inhibitor were incubated with 0.1 nM PAK1 kinase in 20 mM MOPS pH 7, 30 mM MgCl2, 1 mM EDTA, 0.8 μg/μL bovine serum albumin, 5% DMSO (resulting from the inhibitor stock solution), in the presence of 25 μg of MBP substrate for 20 minutes. Reactions were initiated by adding ATP to a final concentration of 1 μM including 0.2 μCi/μL γ-^32P ATP to a final volume of 25 μL. The reactions were terminated by spotting 17.5 μL onto a circular P81 phosphocellulose paper (diameter 2.1 cm), followed by washing three times with 0.75% phosphoric acid and one time with acetone. The dried P81 papers were transferred to scintillation vials and 4 ml of scintillation cocktail was added. The counts per minute (CPM) were measured with a scintillation counter and the enzyme activity in the presence of the inhibitor was calculated as a percentage of the control sample corrected by the background.

MST1 = target: T2, MST1 (Homo sapiens, UniProt Q13043); assay: MST1 kinase assay; format: biochemical; conditions: inhibitor concentration of 4 μM; FIG. 3B
T2 sequence (Q13043 1-487): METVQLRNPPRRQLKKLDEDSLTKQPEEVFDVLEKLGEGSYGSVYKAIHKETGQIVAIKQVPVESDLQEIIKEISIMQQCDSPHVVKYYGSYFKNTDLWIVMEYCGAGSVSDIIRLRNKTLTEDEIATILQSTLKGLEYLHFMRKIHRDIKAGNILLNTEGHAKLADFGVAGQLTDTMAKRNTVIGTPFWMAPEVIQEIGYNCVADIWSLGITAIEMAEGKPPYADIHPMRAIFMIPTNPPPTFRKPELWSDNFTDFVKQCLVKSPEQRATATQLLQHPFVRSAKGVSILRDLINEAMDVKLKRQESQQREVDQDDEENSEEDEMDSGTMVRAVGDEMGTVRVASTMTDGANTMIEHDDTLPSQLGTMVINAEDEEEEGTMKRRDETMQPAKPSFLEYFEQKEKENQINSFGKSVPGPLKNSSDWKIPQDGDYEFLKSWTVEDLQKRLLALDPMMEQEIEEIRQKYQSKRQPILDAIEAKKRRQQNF
Method: MST1 kinase assay—Kinase assays were performed using labeled γ-P^32 ATP and the incorporation of labeled phosphate onto the substrate FOXO was monitored. Kinase assays were performed using kinase buffer containing 10 mM Tris pH 7.5, 10 mM MgCl2, 1 mM dithiothreitol (DTT), 1 mM phenylmethylsulfonyl fluoride (PMSF) and a cocktail containing phosphatase inhibitor. 5 μCi of labeled γ-P^32 ATP and a final concentration of 200 μM of ATP were used for each reaction. 10 nM of the enzyme was pre-incubated for 30 min with various concentrations of inhibitor and an equivalent amount of DMSO was used as a control. After 30 min of incubation of the enzyme with the inhibitor, 1 μg of substrate was added. The reaction was initiated by addition of ATP. All reactions were incubated at 37° C. for 30 min. and then stopped with SDS gel-loading dye; subsequently samples were heated for 3 min and loaded onto a 16% Tris-glycine gel (Novagen). The bands were visualized using high sensitivity Kodak film and the results were quantified using the software ImageJ.

[5] = target: BRAF mutants (Leu513 mutated to valine and alanine); assay: BRAF kinase assay with site directed mutants; format: biochemical, human; conditions: FIG. 6B
Method: as §1, with “(PerkinElmer). […]” for “(PerkinElmer).”

| Structure (SMILES) | IC50 [1] | block of constitutive activity of AKT (phospho-AKT) [2] | cell proliferation (MTT) [3] | invasion of melanoma cells from 3D spheroids [4] | PI3K inhibition / inhibitory potency (in words) ([1]; comparison among the inhibitors, FIG. 2C, FIG. 9) | inhibition of BRAF^WT (BRAF^WT; inhibitor concentration of 4 μM, FIG. 3B) | inhibition against wild-type BRAF (BRAF^WT; inhibitor concentration of 10 μM, FIG. 6B) | inhibition of BRAF^V600E (BRAF^V600E) | inhibition of PAK1 (PAK1) | inhibition of MST1 (MST1) | IC50 [5] |
| --- | --- | --- | --- | --- | --- | --- | --- | --- | --- | --- | --- |
| CN1C(=O)c2c(c3c4cc(O)ccc4[n]4c3c3c2cc(F)c[n+]3[Ru-2]42356([C]#[O+])[CH]4[CH]2[CH]3[C]5(C(=O)NC(C)(CO)CO)[CH]46)C1=O (single isomer, unassigned) [Compound E5E1] | 0.041 µM | block the constitutive activity of AKT in a concentration dependent manner | inhibition of cell proliferation | completely blocked | – | – | – | – | – | – | – |
| CN1C(=O)c2c(c3c4cc(O)ccc4[n]4c3c3c2cc(F)c[n+]3[Ru-2]42356([C]#[O+])[CH]4[CH]2[CH]3[C]5(C(=O)NC(C)(CO)CO)[CH]46)C1=O (single isomer, unassigned) [Compound E5E2] | 0.039 µM | – | – | – | potent | did not show appreciable inhibition | no detectable inhibition | did not show appreciable inhibition | did not show appreciable inhibition | did not show appreciable inhibition | ~10 µM |
| O=c1cc(N2CCOCC2)oc2c(-c3ccccc3)cccc12 [LY294002, 2-(4-morpholinyl)-8-phenyl-4H-1-benzopyran-4-one, reference compound] | – | – | inhibition of cell proliferation | – | – | – | – | – | – | – | – |
